The source of these data is patent US7378443B2, “Fatty acid analogues for the treatment of cancer” (Thia Medica, AS, priority 2000, dated 2008).

For data set [1], the system named is Chinese hamster ovary cells. The data set is described as follows: chromosomal aberrations in cultured Chinese hamster ovary cells. In kind it is cell-based. As to conditions: doses tested 12-140 mg/ml.
Another data set concerns Escherichia coli. The data set is described as follows: tests for mutagenic activity in bacterial strains. The class given is cell-based. Particulars: 3-1000 mg/plate (TTA), 2-5000 mg/plate (TSA). As to the method:
(§1) Covance Laboratories Limited, England, has performed tests for mutagenic activity. […] Furthermore, TTA was not mutagenic when tested in mouse lymphoma cells […] L5178Y.
(§2) The concentration of the compounds tested in S. typhimurium and E. coli were 3-1000 mg/plate (TTA) 2-5000 mg/plate (TSA). In mouse lymphoma cells, L5178Y, the concentration was 2,5-50 mg/ml.

A further data set concerns Salmonella typhimurium. Put plainly: tests for mutagenic activity in bacterial strains. The class given is cell-based. As to conditions: 3-1000 mg/plate (TTA), 2-5000 mg/plate (TSA). Here is the method:
as §1, §2

The subject of a further data set is BT4Cn tumours. Put plainly: survival of rats with intracranially implanted BT4Cn tumours. In kind it is in vivo. Here is the method: Mail Norwegian brown rats, BD IX, were used as described in example 5. The TTA was administered by oro-gastric intubation.
The tumour was implanted by stereotactical transplantation. The rats were anaesthetised with 0.4 ml Equithesin/100 g body weight. A skin incision was made, blood was removed by H2O2 and the scull was trephined using a dental drill.
The burr hole was localized 3.3 mm posterior to the coronal suture and 2.5 mm lateral to the sagittal suture.
Cells were harvested and counted as described above (Section 5.3), and then diluted in DPBS to a final concentration on 20.000 cells/μl. 2 μl cell suspension was injected with a Hamilton syringe with a cone-tipped 0.7 mm needle at a depth of 2.8 mm. The skin was closed with steel staples, and the animals were returned to their cages.

The test system of data set [2] is mouse lymphoma cells, L5178Y. Put plainly: mutagenicity test in mouse lymphoma cells. Particulars: 2,5-50 mg/ml. In kind it is cell-based. Here is the method: as §1, §2
The nature of data set [3]: 28 days toxicity study in dogs (GLP). In kind it is in vivo. An excerpt: A 28 days toxicity study in dogs according to GLP guidelines has been performed by Corning Hazleton (Europe), England. […] Some lipid related parameters were lowered in the animals given high dosages. This is consistent with the pharmacological activity of TTA.
A further data set deals with GaMg cells. Put plainly: cell migration out from attached spheroids. In kind it is cell-based, human. Particulars: 100 μM, 3 days of culture, DMEM, data not shown. Here is the method: (§3) To compare the effect of the different fatty acid analogues on tumour spheroid growth, both D-54Mg and GaMg spheroids were transferred individually into 16 mm 24-well dishes base coated with 0.5 ml 0.75% DMEM-agar. D-54Mg and GaMg are human cell lines. The D-54Mg cell line was derived from a mixed anaplastic glioma and was kindly supplied by Dr. Darell D. Bigner, Duke University, Durham, N.C. The GaMg cell line was established in our laboratory and has been described in detail elsewhere (Bjerkvik et al.: Anticancer research 1998: vol 8, p 797-803). The spheroids were divided into 5 groups with 4 spheroids in each group. Four groups were treated with the different fatty acid analogues at a final fatty acid concentration of either 100 or 250 μM. […] The volume of the overlay suspension was 1.0 ml. The size of the spheroids were determined every second day be measuring two orthogonal diameters using an inverted phase contrast microscope with a calibrated reticle in the eye-piece. This was done during a 14-day period.
(§4) The effect of the fatty acid analogues on cell migration was studied by measuring the ability of cells to migrate out from spheroids that had attached to a plastic surface. […] The size of the outgrowth area was then determined by using a Kontron morphometry system (Kontron, Eching, Germany). […]

For a further data set, the system named is D-54MG cells. Put plainly: cell migration out from attached spheroids. In kind it is cell-based, human. As to conditions: D-54MG spheroids, 100 μM, 3 days of culture, DMEM; data not shown. As to the method: as §3, §4

Entries after “also recorded” stand apart in the source; their conditions may differ.

Turning to `CCCCCCCCCCCCCC[Se]CC(=O)O` [TSA, tetradecylselenioacetic acid], the chromosomal aberrations entry in data set [1] is listed as “no aberrations were induced”. Also, the induction of mutations result in the data set with Escherichia coli and with Salmonella typhimurium was “did not induce mutations; also recorded: not to be mutagenic” each time.
On to Tetradecylthioacetic acid [TTA], for which the overall survival result in the data set on BT4Cn tumours is given as “substantially increased”. Also, the mutagenicity entry in data set [2] is listed as “not mutagenic”. In data set [3] (animals given high dosages), the lipid related parameters result is recorded as “lowered”. The tolerability result in data set [3] (oral administration, dose levels up to 500 mg/kg/day) was “generally well tolerated”. In data set [3] (oral, dose levels of 50 or 500 mg/day/kg), the evidence of toxicity result is “no evidence of toxicity”. Besides, the induction of mutations result in the data set with Escherichia coli and in the data set on Salmonella typhimurium was “did not induce mutations” in each case. Further, the migratory capacity entry in the data set on GaMg cells and in the data set with D-54MG cells was “severely inhibited” throughout.
